SMILES strings stand for the structures.

The test system of data set [1] is epileptiform activity (burst discharges) in hippocampal slices induced by pentylenetetrazol. Kind of data set: In vitro seizure model, pentylenetetrazol-induced epileptiform activity in hippocampal slices. The conditions noted are these: 1 mM; pentylenetetrazol 2 mM, K+ 6 mM. Type of data set: cell-based, rat. The procedure: (§1) Male Sprague-Dawley rats (postnatal Days 19–30) were sacrificed using an overdose of isoflurane or pentobarbitone (500 mg/kg). After decapitation the brain was rapidly removed, the hippocampus or entorhinal cortex-hippocampus slices was dissected from the brain and […] thick transverse slices were prepared on a VT1200S vibratome (Leica) or Vibratome (Vibratome® 1500 sectioning system, Intracell). The slicing was performed in ice-cold sucrose-based solution containing (in mM): 75 sucrose, 87 NaCl, 22 glucose, 2.5 KCl, 7 MgCl2, 1.25 NaH2PO4, 0.5 CaCl2 and 25 NaHCO3, pH 7.4, 315–330 mOsm equilibrated with 95% O2 plus 5% CO2. The slices were then stored in a continuously oxygenated humidified interface holding chamber containing oxygenated artificial CSF (in mM): 120 NaCl, 22 glucose, 2.5 KCl, 1.3 MgSO4, 1 NaH2PO4, 25 NaHCO3 and 2.5 CaCl2, pH 7.4 296 mOsm, where they recovered for at least 1 h before use.
(§2) During the experiment, slices were transferred from the interface chamber into a submerged recording chamber, designed to optimize wash-in and wash-out of drugs, and continuously perfused using gravity feed at 3–6 ml/min with prewarmed (36°C) oxygenated artificial CSF (95% O2, 5% CO2). Field potentials were recorded with a glass microelectrode (1–2 MΩ) filled with artificial CSF solution placed in stratum radiatum of CA1 and were filtered at 1 kHz and digitized at 2 kHz (using an npi EXT-02F extracellular amplifier recorded with WinEDR software). In the pentylenetetrazol model, the epileptiform (paroxysmal) activity was induced by application of pentylenetetrazol (2 mM) to the perfusate and [K^+] was increased (to 6 mM); in low-Mg^2+ model, the epileptiform activity was elicited by using Mg^2+-free artificial CSF. Once the frequency of the paroxysmal activity was stable for at least 10 min, compounds were applied to the perfusate for the following 40 min, and washed out for a remaining 20 min. The anticonvulsant effects were evaluated by measuring the change in the frequency of the discharges at minute intervals. The discharge frequency was then averaged every 5 min during the experiment and normalized to baseline. The compounds applied in this study included: 1% dimethyl sulphoxide (DMSO), acetone (10 mM, Sigma), (±)-sodium 3-hydroxybutyrate (BHB) (10 mM, Sigma), and decanoic acid (1 mM, Alfa Aesar Pty). Acetone and decanoic acids were prepared as 1000× stocks in DMSO, and BHB was prepared as 100× stock. Stocks were dissolved in artificial CSF to achieve their final concentrations during experiments, and where applicable, experiments included constant levels of DMSO.

The test system of data set [2] is epileptiform activity (burst discharges) in hippocampal slices induced by low-Mg2+. Kind of data set: In vitro seizure model, low-Mg2+ induced epileptiform activity in hippocampal slices. In kind it is cell-based, rat. The conditions noted are these: 1 mM; low magnesium. Here is the method: as §1
as §2, with “The discharge frequency was then averaged every 5 min during the experiment and normalized to baseline. The compounds applied in this study included: 1% dimethyl sulphoxide (DMSO), acetone (10 mM, Sigma), (±)-sodium 3-hydroxybutyrate (BHB) (10 mM, Sigma), and decanoic acid (1 mM, Alfa Aesar Pty). Acetone and decanoic acids were prepared as 1000× stocks in DMSO, and BHB was prepared as 100× stock. Stocks were dissolved in artificial CSF to achieve their final concentrations during experiments, and where applicable, experiments included constant levels of DMSO.” left out

The target of a further data set is T1, AMPA receptor GluA1 (Homo sapiens, UniProt P42261).
T1 construct: expressed in transfected cells; host or cells: Xenopus laevis oocytes injected with cRNA
Nature of the data set: Two-electrode voltage clamp, homomeric GluA1 AMPA receptor expressed in Xenopus oocytes. In kind it is cell-based. The procedure:
The AMPA receptor (flip isoform) cDNAs inserted in a SP6 polymerase expression vector (pSP6T) were a generous gift from Prof. Ralf Schoepfer (NPP, UCL). RNA was transcribed in vitro from MluI linearized transcripts using the SP6 Promega RiboMAX® RNA synthesis kit according to manufacturer’s protocols except for the addition of 0.75 mM capping nucleotide m^7G(5’)ppp(5’)G (Promega) and 1.6 mM GTP. cRNA concentrations and integrity were estimated by the intensity of fluorescence bands in RNA denaturating gels. AMPA receptor cRNAs were mixed in a nominal 1:1 ratio and ∼5 ng was injected per oocyte.
Xenopus laevis oocytes were purchased from the European Xenopus Resource Centre, University of Portsmouth. Stage V to VI oocytes were mechanically dissected and then subjected to gentle shaking for ∼30–50 min at room temperature with modified Barth’s solution (in mM): 88 NaCl, 1 KCl, 2.4 NaHCO3, 0.82 MgCl2, 0.77 CaCl2, 15 Tris-Cl, adjusted to pH 7.4 with NaOH (Sigma-Aldrich), supplemented with 50 IU/ml penicillin and 50 µg/ml streptomycin (Invitrogen) and 50 µg/ml tetracycline (Sigma-Aldrich) and 1% collagenase (type 1A). Healthy oocytes were manually defolliculated and the injections of cRNA for homomeric subunits alone (GluA1), or heteromeric mixtures of two subunits together (GluA1/GluA2 or GluA2/GluA3) were made using an automated Drummond Nanoinject II injector. The oocytes were then incubated at 17°C in modified Barth’s solution for at least 48 h before use in electrophysiological recordings.
Experiments were performed at room temperature (∼21–23°C). An oocyte was placed in a recording chamber (0.3–0.5 ml volume) and perfused with ND96 solution (96 mM NaCl, 2 mM KCl, 1.8 mM CaCI2, 1 mM MgCl2, 5 mM HEPES, with pH adjusted to 7.5). Current and voltage electrodes were filled with 300 mM KCl and made from thin-walled borosilicate glass (GC150TF-7.5, Harvard Apparatus) using a PC-10 electrode puller (Narashige Instruments) and had resistances of 0.5–2 MΩ. Oocytes were voltage-clamped to a holding potential of −50 mV or −60 mV using a Turbo TEC-03 amplifier (npi electronics). […]

Details of data set [3]: method as in Wlaz et al., 2012. The conditions noted are these: mice, gastric gavage 30 mmol/kg; ref Wlaz et al., 2012; cited from earlier work.

T1 sequence (P42261 19-906 isoform P42261-2 limits assumed): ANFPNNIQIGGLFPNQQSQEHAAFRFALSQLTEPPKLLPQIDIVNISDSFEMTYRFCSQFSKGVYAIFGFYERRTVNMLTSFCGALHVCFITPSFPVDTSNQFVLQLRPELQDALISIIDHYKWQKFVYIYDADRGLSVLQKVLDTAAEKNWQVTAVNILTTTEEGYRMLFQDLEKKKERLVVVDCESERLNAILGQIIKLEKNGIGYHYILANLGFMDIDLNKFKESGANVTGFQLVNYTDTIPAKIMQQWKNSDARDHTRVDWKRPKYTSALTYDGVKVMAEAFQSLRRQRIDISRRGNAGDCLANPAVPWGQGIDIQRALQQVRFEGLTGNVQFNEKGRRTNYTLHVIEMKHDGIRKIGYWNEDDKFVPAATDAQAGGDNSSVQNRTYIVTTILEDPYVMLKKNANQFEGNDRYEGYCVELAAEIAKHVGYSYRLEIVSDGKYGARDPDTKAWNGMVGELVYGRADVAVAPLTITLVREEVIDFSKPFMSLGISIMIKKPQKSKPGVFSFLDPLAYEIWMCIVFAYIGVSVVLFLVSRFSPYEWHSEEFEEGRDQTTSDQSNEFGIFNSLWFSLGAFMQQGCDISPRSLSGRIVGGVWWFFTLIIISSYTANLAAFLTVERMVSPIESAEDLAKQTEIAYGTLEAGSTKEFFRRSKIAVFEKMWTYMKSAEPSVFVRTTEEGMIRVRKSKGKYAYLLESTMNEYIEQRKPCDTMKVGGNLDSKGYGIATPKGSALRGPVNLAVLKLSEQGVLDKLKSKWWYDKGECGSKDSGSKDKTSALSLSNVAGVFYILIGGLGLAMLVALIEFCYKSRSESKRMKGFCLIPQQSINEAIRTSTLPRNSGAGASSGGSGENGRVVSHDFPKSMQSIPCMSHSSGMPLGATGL

`CCCCCCCCCC(=O)O` [decanoic acid]: the “effect on epileptiform activity” value in data set [1] and in data set [2] was “completely blocked” in each case. This compound gave an IC50 at AMPA receptor GluA1 of 2090 µM. For the same compound, the brain concentration result in data set [3] is reported as “up to 240 µM”. For the same compound, the “brain concentration as share of serum levels” value in data set [3] is 60–80%.

The record behind these values is publication PMC4805082, “Seizure control by decanoic acid through direct AMPA receptor inhibition” (Brain, 2015).
